Test results taken from US20020076402A1, “Enzyme-based fungicidal composition” (Universite Pierre et Marie Curie, priority 1998, published 2002).

Columns and labels:
[1] = test system: Fusarium nivale and Fusarium roseum; assay: Pelliculisation of corn: degree of contamination by Fusarium sp.; type: in vivo
Description: (§1) Germination inhibition test: The pelliculised grains were placed in Petri dishes containing the growth medium. On the fifth day, the degree of contamination (number of contaminated grains/total number of grains) and degree of germination (number of germinated grains/total number of grains) were determined and compared with those of batches pelliculised with Sepiret 01G alone.
(§2) Formulation: An aqueous suspension of Sepiret 7017 Argent composed of 7 g of commercial slip and 10 ml of water was used. 100 mg of the substances shown below was mixed with 2 ml of the above suspension and this mixture was used to pelliculise batches of 2 g of corn. This latter originated from a culture naturally contaminated with Fusarium nivale and Fusarium roseum: […]
(§3) Mixtures tested: (quantities used to pelliculise 2 g of corn: […]

[2] = test system: corn; assay: Pelliculisation of corn: degree of germination; type: in vivo
Description: When the test is applied to pelliculised grains or seeds, the degree of germination is determined by the number of grains germinated over the total number of grains, and compared with those of non pelliculised batches, or grains that are pelliculised grains in the absence of enzymes and/or their substrate.
Chitinases alone: quantity used to pelliculise 3 to 4 g of corn naturally contaminated with the phytopathogenic fungi Fusarium nivale and Fusarium roseum: 100 mg of CNase was mixed with 3.4 ml of a suspension of Sepiret 7017 Argent composed of 3.6 g of the commercial suspension and 10 ml of water.
Laminarinases alone: quantity used to pelliculise 2 g of contaminated corn: 40 mg of freeze-dried LMase with a filter of 17 units/mg were mixed with 2 ml of a suspension of Sepiret 7017 Argent composed of 3 g of the commercial suspension and 5 ml of water.
Lysozyme alone: quantity used to pelliculise 2 g of contaminated corn: 100 mg of LZ was mixed with 2 ml of a suspension of Sepiret 7017 Argent composed of 5 g of the commercial suspension and 7.1 ml of water.
as §1, §2, §3

[3] = Example 4, 100 mg substance in 2 ml Sepiret 7017 Argent suspension per 2 g corn, day five
[4] = Example 3 mono-enzymatic mixtures in Sepiret 7017 Argent, fifth day

Compound | Contamination [1, 3] [%] | effect on degree of contamination (in words) ([1]; Example 4, vs reference) | Germination [2, 3] [%] | inhibition of Fusarium sp. fungi (in words) ([1]; Example 3, enzyme alone) | Degree of contamination [1, 4] [%] | relative variation of degree of germination ([2]; Example 3, vs own control) | Degree of germination [2, 4] [%]
CC(=O)N[C@H]1C(O)O[C@H](CO)[C@@H](O)[C@@H]1O (stereo partly shown) [NAG, N-acetylglucosamine, reference compound] | 70 | no effect | 65 | – | – | – | –
lysozyme hydrochloride [LZ] | – | – | – | no effect | 65 | +20% | 85
